Measured values published in patent US12359259B2, “Biomarkers for predicting prostate cancer progression” (ACADEMIA SINICA, priority 2018, dated 2025).

What was measured:
Format in all cases: cell-based
SOX9 expression = experiment: Immunoblots of SOX9 expression in 22Rv1-M4 cells; details: 3 μM Swainsonine or 4 mM Benzyl-α-GalNAc for 2 days
[1] = tested on: HER2/3 phosphorylation, AR, and PSA expression; experiment: Immunoblots of HER2/3 phosphorylation, AR and PSA expression after galectin-4 induction
[2] = tested on: LNCaP-tetO-Gal4 and 22Rv1-tetO-Gal4 cells; experiment: Lectin binding assay (flow cytometry) of cell surface glycans after glycosylation inhibitor treatment
Method: FIG. 8A to FIG. 8C show the characterization of glycophenotype in prostate cancer cells. FIG. 8A and FIG. 8B show lectin binding assay of LNCaP-tetO-Gal4 (A) and 22Rv1-tetO-Gal4 (B) cells treated with 3 μM Swainsonine or 4 mM Benzyl-α-GalNAc for 2 day following galectin-4 induction by doxycycline. […] Below, the mean fluorescence intensity (MFI) values from triplicates. Data are expressed as mean±SEM. *P<0.05, **P<0.01, ***P<0.001 (unpaired t-test, two-tail).
To profile cell surface glycans, cells were detached by Accutase (Innovative Cell Technologies, San Diego, CA) treatment, washed with PBS for three times, and suspended in Carbo-Free Blocking Solution (VECTOR, Burlingame, CA). Cells were incubated with biotin-conjugated lectins, PHA-L (2 μg/mL), PNA (10 μg/mL), MALII (5 μg/mL), Jacalin (5 μg/mL, VECTOR), and galectin-4 (5 μg/mL), or BSA as a control followed by APC-labeled streptavidin. After incubation for 30 min on ice, cells were analyzed on an Accuri C6 flow cytometer (BD Biosciences, Taiwan). Galectin-4 (R&D Systems, Minneapolis, MN) and BSA were biotinylated using Lightning-Link Rapid Conjugation System (Innova Biosciences, Cambridge, UK) following the manufacturer's instructions.

LNCaP-CR4 cells = experiment: Colony-formation assay under enzalutamide treatment; details: LNCaP-CR4 vs LNCaP; 10 days
MYC and C1GALT1 = experiment: Immunoblots of MYC and C1GALT1 levels under inhibitor treatment; details: 22Rv1-M4 and galectin-4-expressing 22Rv1 and LNCaP cells; 24 h
Description: Data are expressed as mean±SEM. *P<0.05, **P<0.01, ***P<0.001 (unpaired t-test, two-tail).

[3] = 4 mM Benzyl-α-GalNAc for 2 day, PCa cells

CC(=O)N[C@H]1[C@@H](OCc2ccccc2)O[C@H](CO)[C@H](O)[C@@H]1O [benzyl-α-GalNAc] was tested. Which SOX9 expression (SOX9 expression) did it give?
The SOX9 expression was “significantly inhibited”.

What about the “galectin-4-mediated activation of HER2/3 and AR signaling” value ([1]; 4 mM Benzyl-α-GalNAc for 2 day, galectin-4 expressing LNCaP and 22Rv1 cells) of the same compound?
The value was “blocked”.

And the galectin-4 activity ([1]; PCa cells)?
Its galectin-4 activity is “suppressed”.

And the “binding of treated cells to MALII” value [2, 3]?
Its value is “reduced”.

What about the “binding of treated cells to PNA” value [2, 3] of the same compound?
Its value is “increased”.

What about the “biosynthesis of α2,3-sialyl-T antigen” value ([2]; PCa cells) of the same compound?
The value was “significantly impaired”.

With CNC(=O)c1ccc(N2C(=S)N(c3ccc(C#N)c(C(F)(F)F)c3)C(=O)C2(C)C)cc1F [enzalutamide] as the compound, how does the “clonogenic growth of LNCaP-CR4 cells under enzalutamide” value (LNCaP-CR4 cells) read?
Its value is “resistance”.

Which “induction of MYC and C1GALT1 compared to vehicle treatment” value (MYC and C1GALT1) does the source give for N#CC(=C(N)Sc1ccc(N)cc1)c1ccccc1C(F)(F)F [MEK1/2 inhibitor] here?
Its value is “blocked”.

With O[C@H]1[C@H]2[C@H](O)CCCN2C[C@H]1O [swainsonine] as the compound, how does the SOX9 expression (SOX9 expression) read?
The SOX9 expression was “did not affect”.

What about the “HER2/3 phosphorylation and induction of AR and PSA protein expression” value ([1]; 3 μM Swainsonine for 2 day, galectin-4 expressing LNCaP and 22Rv1 cells) of the same compound?
Its value is “did not affect”.

What about the “PHA-L staining for N-glycans” value ([2]; 3 μM Swainsonine for 2 day following doxycycline-mediated galectin-4 induction, LNCaP and 22Rv1 cells) of the same compound?
Its value is “decreased”.
